The term inhibition denotes the drop in the measured response relative to a control, in per cent.

Common to all, as to format: functional
Assay [1] deals with PBMC. Nature of the assay: Inhibition of LPS-induced IL1-beta production in human PBMC at 0.01 uM after 24 hrs by ELISA.
Assay [2] has as its system PBMC. Nature of the assay: Inhibition of LPS-induced IL1-beta production in human PBMC at 0.1 uM after 24 hrs by ELISA. (ELISA stands for enzyme-linked immunosorbent assay.)
Assay [3] deals with PBMC. Nature of the assay: Inhibition of LPS-induced IL1-beta production in human PBMC at 1.0 uM after 24 hrs by ELISA.
In assay [4] the test system is PBMC. Description: Inhibition of LPS-induced IL1-beta production in human PBMC at 10 uM after 24 hrs by ELISA.

For the compound `COC(=O)c1ccc([C@@H](O)[C@@H](C)O)cn1`, in assay [1], the inhibition at 0.01 µM is 9.1%. For the same compound, in assay [2], the inhibition at 0.1 µM stood at 4.3%. For the same compound, the inhibition at 1 µM in assay [3] worked out at 10.6%. Besides, in assay [4], the inhibition at 10 µM was -7.5%.

For `COC(=O)c1ccc([C@H](O)[C@H](C)O)cn1`, in assay [1], the inhibition at 0.01 µM was -9.5%. Besides, the inhibition at 0.1 µM in assay [2] was 13.8%. Also, the inhibition at 1 µM in assay [3] came to 39.6%. For the same compound, the inhibition at 10 µM in assay [4] came out at 49.8%.

The values are drawn from ChEMBL document CHEMBL1153369, “First asymmetric synthesis of CJ-14877 and its enantiomer and their interleukin-1beta inhibitory activities” (2009).
